# According to patent US20080125424A1, “Derivatives of urea and related diamines, methods for their manufacture, and uses therefor” (priority 2006, published 2008):
# Target: T1, Human Ca2+ receptor (Homo sapiens, UniProt P41180)
# T1 construct: expressed in transfected cells
# T1 sequence (P41180 20-1078): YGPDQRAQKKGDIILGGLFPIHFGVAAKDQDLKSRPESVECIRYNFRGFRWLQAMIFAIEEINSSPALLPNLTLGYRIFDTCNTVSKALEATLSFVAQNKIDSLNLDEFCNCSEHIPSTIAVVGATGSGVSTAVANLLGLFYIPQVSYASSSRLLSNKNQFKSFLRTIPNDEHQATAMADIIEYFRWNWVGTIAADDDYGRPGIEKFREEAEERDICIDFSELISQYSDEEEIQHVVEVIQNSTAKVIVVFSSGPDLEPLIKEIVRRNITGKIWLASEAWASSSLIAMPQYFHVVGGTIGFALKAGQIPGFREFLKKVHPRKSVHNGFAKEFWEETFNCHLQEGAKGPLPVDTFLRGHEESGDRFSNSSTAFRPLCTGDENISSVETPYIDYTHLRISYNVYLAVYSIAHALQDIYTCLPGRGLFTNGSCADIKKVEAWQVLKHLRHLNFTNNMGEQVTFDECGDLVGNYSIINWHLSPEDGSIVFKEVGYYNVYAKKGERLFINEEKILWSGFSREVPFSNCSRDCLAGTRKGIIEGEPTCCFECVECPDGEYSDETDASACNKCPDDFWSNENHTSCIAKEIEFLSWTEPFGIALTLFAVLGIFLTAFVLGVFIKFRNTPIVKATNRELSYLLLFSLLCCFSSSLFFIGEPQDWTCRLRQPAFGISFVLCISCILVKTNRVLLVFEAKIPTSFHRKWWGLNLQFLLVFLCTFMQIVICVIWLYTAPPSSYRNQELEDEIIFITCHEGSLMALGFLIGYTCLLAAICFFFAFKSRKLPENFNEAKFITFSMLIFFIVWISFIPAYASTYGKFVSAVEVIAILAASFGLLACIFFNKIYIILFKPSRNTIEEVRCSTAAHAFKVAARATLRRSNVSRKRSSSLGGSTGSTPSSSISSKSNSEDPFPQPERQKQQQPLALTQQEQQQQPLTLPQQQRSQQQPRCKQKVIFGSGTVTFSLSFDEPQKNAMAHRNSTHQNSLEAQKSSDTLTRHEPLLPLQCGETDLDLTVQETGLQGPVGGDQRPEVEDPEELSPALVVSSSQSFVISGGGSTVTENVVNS
# Experiment: Luciferase reporter assay in CHO cells (ET8-5-5) transfected with human Ca2+ receptor
# Format: cell-based
# Conditions: CHO ET8-5-5 cells, 5 h incubation with test compound
# Description: The activities of the compounds of the present invention on calcium receptors were measured in accordance with the method described hereinbelow.
# Human Ca^2+ receptor cDNA was subcloned into the mammalian expression vector PECE as described in Ellis, L et al. (1986) Cell vol. 45, 721-732. The luciferase reporter was subcloned into the mammalian expression vector pGL3basic (Promega). Resistance to neomycin (pSV2-neo) and resistance to puromycin (pSG5-puro) were used as selection markers. All these plasmids were simultaneously transfected into CHO cells by calcium phosphate precipitation. Transfected cells were grown in F12 medium containing 7.5% foetal bovine serum, 100 U/ml penicillin and 100 μg/ml streptomycin (as 1% Pen-Strep, BioWithaker), neomycin (750 μg/ml) and puromycin (5 μg/ml). Neomycin and puromycin resistant colonies were subcloned and assayed for activation against a range of calcium concentration. Clone 8-5-5 was used to assess the effects of compounds on [Ca^2+]i. This stably transfected cell line was termed ET8-5-5.
# For measurements of [Ca^2+]i, the cells were recovered from tissue culture flasks by brief treatment with Trypsin-EDTA (Invitrogen; containing 0.53 mM EDTA.4Na in HBSS) and then seeded in culture-treated 96-well plates (Greiner) at 50 k cells per well in the growth media (same as above, except neomycin 400 μg/ml). Cells were grown in 37° C. TC incubator for 24 h. The culture medium was then removed and replaced with F12 medium, 1% Pen-Strep for an overnight foetal bovine serum starvation in 37° C. TC incubator. Then the starvation medium was removed and replaced with a test buffer (20 mM HEPES pH 7.4, 125 mM NaCl, 5 mM KCl, 1 mM MgCl2, 5.5 mM Glucose, 2 g/l lysosyme and 0.3 mM CaCl2) supplemented with a range of test compound concentrations crossed against a super-added range of CaCl2 concentrations. The cells were incubated with the test compounds for 5 h in 37° C. TC incubator. Then the test buffer was discarded, and cells were added with the substrate for Luciferase from SteadyLite Kit (Perkin-Elmer). The luminescence was recorded.
row,Structure (SMILES),EC50
1,"COC(=O)c1cccc(NC(=O)N(CCC(c2ccccc2)c2ccccc2)CC(=O)OC(C)(C)C)c1 [Example 63, 3-[3-tert-butoxycarbonylmethyl-3-(3,3-diphenyl-propyl)-ureido]-benzoic acid methyl ester]",100 to 1000 nM
2,"O=C(O)CCCN(CCC(c1ccccc1)c1ccccc1)C(=O)Nc1cccc(C(=O)O)c1 [Example 65, 3-[3-(3-carboxy-propyl)-3-(3,3-diphenyl-propyl)-ureido]-benzoic acid]",1000 to 10000 nM
3,"O=C(O)CN(CCC(c1ccccc1)c1ccccc1)C(=O)Nc1cccc(C(=O)O)c1 [Example 66, 3-[3-carboxymethyl-3-(3,3-diphenyl-propyl)-ureido]-benzoic acid]",1000 to 10000 nM
4,"COc1ccc(S(=O)(=O)NCCN(CCC(c2ccccc2)c2ccccc2)C(=O)Nc2nc3ccccc3s2)cc1 [Example 172, N-{2-[3-Benzothiazol-2-yl-1-(3,3-diphenylpropyl)-ureido]-ethyl}-4-methoxybenzenesulfonamide]",100 to 1000 nM
5,"O=C(Nc1nc2ccccc2s1)N(CCNS(=O)(=O)c1ccc(C(F)(F)F)cc1)CCC(c1ccccc1)c1ccccc1 [Example 173, N-{2-[3-Benzothiazol-2-yl-1-(3,3-diphenylpropyl)-ureido]-ethyl}-4-trifluoromethyl-benzenesulfonamide]",100 to 1000 nM

# Results, then the compound that gave them:
row,EC50,Structure (SMILES)
1,< 100 nM,"CCOC(=O)CCCN(CCC(c1ccccc1)c1ccccc1)C(=O)Nc1cccc(C(=O)OC)c1 [Example 64, 3-[3-(3,3-diphenyl-propyl)-3-(3-ethoxycarbonyl-propyl)-ureido]-benzoic acid methyl ester]"
2,100 to 1000 nM,"COC(=O)c1ccccc1S(=O)(=O)NCCN(CCC(c1ccccc1)c1ccccc1)C(=O)Nc1nc2ccccc2s1 [Example 171, 2-{2-[3-Benzothiazol-2-yl-1-(3,3-diphenyl-propyl)-ureido]-ethylsulfamoyl}-benzoic acid methyl ester]"
